Biological target: DNMT1 (Homo sapiens, UniProt P26358)
Assay type: biochemical

Chain of DNMT1 (P26358 whole entry): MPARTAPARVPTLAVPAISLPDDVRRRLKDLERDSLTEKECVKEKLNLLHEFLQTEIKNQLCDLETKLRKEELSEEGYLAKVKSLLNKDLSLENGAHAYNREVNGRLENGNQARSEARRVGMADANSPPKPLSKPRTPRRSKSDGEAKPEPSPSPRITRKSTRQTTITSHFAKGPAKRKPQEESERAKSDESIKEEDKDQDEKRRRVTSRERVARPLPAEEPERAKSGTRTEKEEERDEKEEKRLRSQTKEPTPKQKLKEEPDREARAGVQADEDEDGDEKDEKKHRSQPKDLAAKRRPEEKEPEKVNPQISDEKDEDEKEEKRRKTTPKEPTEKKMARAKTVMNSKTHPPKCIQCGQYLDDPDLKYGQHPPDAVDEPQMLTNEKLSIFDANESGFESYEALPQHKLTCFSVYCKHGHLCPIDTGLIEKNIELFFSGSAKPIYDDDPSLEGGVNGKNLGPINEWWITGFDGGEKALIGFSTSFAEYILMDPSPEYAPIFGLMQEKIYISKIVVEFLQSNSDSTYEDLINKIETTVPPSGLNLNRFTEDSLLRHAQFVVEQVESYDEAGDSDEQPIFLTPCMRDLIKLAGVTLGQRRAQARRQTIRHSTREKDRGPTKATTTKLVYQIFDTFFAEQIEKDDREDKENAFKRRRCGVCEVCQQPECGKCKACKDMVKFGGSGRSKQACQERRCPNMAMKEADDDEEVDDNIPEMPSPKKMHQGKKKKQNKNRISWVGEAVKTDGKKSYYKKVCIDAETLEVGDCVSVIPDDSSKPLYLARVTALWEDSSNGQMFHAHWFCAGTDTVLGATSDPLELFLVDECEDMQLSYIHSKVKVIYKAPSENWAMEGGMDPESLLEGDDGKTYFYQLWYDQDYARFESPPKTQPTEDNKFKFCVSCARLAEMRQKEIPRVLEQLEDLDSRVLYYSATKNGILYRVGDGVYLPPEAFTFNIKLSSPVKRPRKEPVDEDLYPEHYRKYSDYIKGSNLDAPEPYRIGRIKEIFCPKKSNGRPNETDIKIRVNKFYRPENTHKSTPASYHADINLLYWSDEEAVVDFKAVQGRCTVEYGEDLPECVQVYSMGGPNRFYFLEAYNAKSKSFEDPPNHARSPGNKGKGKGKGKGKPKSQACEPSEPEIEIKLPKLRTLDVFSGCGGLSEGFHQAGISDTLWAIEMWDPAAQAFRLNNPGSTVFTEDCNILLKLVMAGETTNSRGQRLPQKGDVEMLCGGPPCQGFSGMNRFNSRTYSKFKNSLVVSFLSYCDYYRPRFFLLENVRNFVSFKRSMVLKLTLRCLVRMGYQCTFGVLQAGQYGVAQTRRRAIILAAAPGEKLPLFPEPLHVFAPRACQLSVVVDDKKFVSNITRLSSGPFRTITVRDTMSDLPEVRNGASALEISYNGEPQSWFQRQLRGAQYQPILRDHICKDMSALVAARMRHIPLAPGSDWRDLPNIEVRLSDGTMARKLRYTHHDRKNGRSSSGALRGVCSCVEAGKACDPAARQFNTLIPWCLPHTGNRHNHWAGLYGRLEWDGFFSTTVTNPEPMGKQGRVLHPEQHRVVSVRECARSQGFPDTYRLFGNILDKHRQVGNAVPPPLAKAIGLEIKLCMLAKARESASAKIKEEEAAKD

SMILES: CCN(CC)C(=S)SSC(=S)N(CC)CC [DSF, Disulfiram]
- in vitro methyltransferase assay, tritium incorporation from 3H-AdoMet into hemi: 95% reduction of activity at 200

Reference: publication PMC3043358 (The Prostate, 2010)
